Assay: xn = mol fraction of the nth substance listed
Details: for surface tension liquid-gas: Capillary rise; for viscosity / mass density: 100.8 kPa, Liquid; for viscosity: Falling or rolling sphere viscometry; for mass density: Vibrating tube method

CC(=O)OCc1ccccc1 [benzyl ethanoate] + CCO
Details | mass density [kg/m3] | surface tension liquid-gas [mN/m] | viscosity [mPa·s]
293.15 K, x2 = 0 | 1055.81 | 37.3 | 2.324
293.15 K, x2 = 0.0502 | 1050.61 | 36.3 | 2.18
293.15 K, x2 = 0.1 | 1044.89 | 35.4 | 2.063
293.15 K, x2 = 0.1498 | 1038.77 | 34.4 | 1.962
293.15 K, x2 = 0.1998 | 1032.15 | 33.4 | 1.879
293.15 K, x2 = 0.2499 | 1025.14 | 32.5 | 1.808
293.15 K, x2 = 0.2998 | 1017.51 | 31.6 | 1.736
293.15 K, x2 = 0.35 | 1009.27 | 30.8 | 1.672
293.15 K, x2 = 0.4 | 1000.55 | 30 | 1.613
293.15 K, x2 = 0.4501 | 991.15 | 29.3 | 1.551
293.15 K, x2 = 0.5 | 980.94 | 28.6 | 1.49
293.15 K, x2 = 0.5499 | 969.73 | 27.9 | 1.439
293.15 K, x2 = 0.6 | 957.31 | 27.2 | 1.392
293.15 K, x2 = 0.65 | 943.77 | 26.7 | 1.347
293.15 K, x2 = 0.7 | 928.69 | 26.2 | 1.305
293.15 K, x2 = 0.7499 | 912.06 | 25.8 | 1.267
293.15 K, x2 = 0.7999 | 893.44 | 25.2 | 1.232
293.15 K, x2 = 0.85 | 872.42 | 24.5 | 1.202
293.15 K, x2 = 0.9 | 848.54 | 23.8 | 1.188
293.15 K, x2 = 0.95 | 821.38 | 23.1 | 1.178
303.15 K, x2 = 0 | 1046.74 | 35.6 | 1.836
303.15 K, x2 = 0.0502 | 1041.18 | 34.8 | 1.75
303.15 K, x2 = 0.1 | 1035.33 | 34 | 1.663
303.15 K, x2 = 0.1498 | 1029.09 | 33.2 | 1.595
303.15 K, x2 = 0.1998 | 1022.42 | 32.4 | 1.534
303.15 K, x2 = 0.2499 | 1015.3 | 31.6 | 1.477
303.15 K, x2 = 0.2998 | 1007.78 | 30.8 | 1.42
303.15 K, x2 = 0.35 | 999.68 | 30 | 1.375
303.15 K, x2 = 0.4 | 990.86 | 29.2 | 1.327
303.15 K, x2 = 0.4501 | 981.38 | 28.5 | 1.281
303.15 K, x2 = 0.5 | 971.11 | 27.8 | 1.233
303.15 K, x2 = 0.5499 | 959.94 | 27.1 | 1.194
303.15 K, x2 = 0.6 | 947.61 | 26.4 | 1.151
303.15 K, x2 = 0.65 | 933.97 | 25.8 | 1.115
303.15 K, x2 = 0.7 | 919.03 | 25.2 | 1.077
303.15 K, x2 = 0.7499 | 902.5 | 24.8 | 1.038
303.15 K, x2 = 0.7999 | 883.9 | 24.2 | 1.009
303.15 K, x2 = 0.85 | 863.07 | 23.6 | 0.989
303.15 K, x2 = 0.9 | 839.36 | 22.9 | 0.982
303.15 K, x2 = 0.95 | 812.21 | 22.2 | 0.975
313.15 K, x2 = 0 | 1037.42 | 34.3 | 1.474
313.15 K, x2 = 0.0502 | 1031.85 | 33.6 | 1.413
313.15 K, x2 = 0.1 | 1025.96 | 32.8 | 1.362
313.15 K, x2 = 0.1498 | 1019.7 | 32 | 1.308
313.15 K, x2 = 0.1998 | 1012.98 | 31.3 | 1.265
313.15 K, x2 = 0.2499 | 1005.82 | 30.5 | 1.226
313.15 K, x2 = 0.2998 | 998.2 | 29.8 | 1.181
313.15 K, x2 = 0.35 | 989.97 | 29.1 | 1.143
313.15 K, x2 = 0.4 | 981.2 | 28.4 | 1.101
313.15 K, x2 = 0.4501 | 971.7 | 27.7 | 1.067
313.15 K, x2 = 0.5 | 961.42 | 27 | 1.029
313.15 K, x2 = 0.5499 | 950.19 | 26.4 | 0.999
313.15 K, x2 = 0.6 | 937.83 | 25.8 | 0.964
313.15 K, x2 = 0.65 | 924.36 | 25.2 | 0.93
313.15 K, x2 = 0.7 | 909.51 | 24.6 | 0.891
313.15 K, x2 = 0.7499 | 893.04 | 24 | 0.867
313.15 K, x2 = 0.7999 | 874.6 | 23.4 | 0.841
313.15 K, x2 = 0.85 | 853.75 | 22.8 | 0.823
313.15 K, x2 = 0.9 | 830.17 | 22.1 | 0.812
313.15 K, x2 = 0.95 | 803.27 | 21.4 | 0.808
323.15 K, x2 = 0 | 1027.51 | 33.2 | 1.256
323.15 K, x2 = 0.0502 | 1021.88 | 32.5 | 1.22
323.15 K, x2 = 0.1 | 1015.97 | 31.8 | 1.187
323.15 K, x2 = 0.1498 | 1009.69 | 31.1 | 1.154
323.15 K, x2 = 0.1998 | 1002.94 | 30.4 | 1.12
323.15 K, x2 = 0.2499 | 995.85 | 29.6 | 1.086
323.15 K, x2 = 0.2998 | 988.26 | 28.9 | 1.05
323.15 K, x2 = 0.35 | 980.03 | 28.2 | 1.015
323.15 K, x2 = 0.4 | 971.24 | 27.5 | 0.979
323.15 K, x2 = 0.4501 | 961.72 | 26.7 | 0.943
323.15 K, x2 = 0.5 | 951.49 | 26 | 0.911
323.15 K, x2 = 0.5499 | 940.31 | 25.3 | 0.882
323.15 K, x2 = 0.6 | 927.98 | 24.7 | 0.853
323.15 K, x2 = 0.65 | 914.58 | 24.1 | 0.825
323.15 K, x2 = 0.7 | 899.72 | 23.5 | 0.795
323.15 K, x2 = 0.7499 | 883.26 | 22.9 | 0.77
323.15 K, x2 = 0.7999 | 864.86 | 22.3 | 0.743
323.15 K, x2 = 0.85 | 844.15 | 21.7 | 0.723
323.15 K, x2 = 0.9 | 820.71 | 21 | 0.704
323.15 K, x2 = 0.95 | 794.02 | 20.3 | 0.692

— the NIST ThermoML archive (doi:10.1021/je201009c)
